From publication PMC6144582, “The Binding of BF-227-Like Benzoxazoles to Human α-Synuclein and Amyloid β Peptide Fibrils” (Molecular Imaging, 2018)
Like-named read-outs stand apart in the source and are kept apart here.

Legend:
human α-Syn fibrils = molecular target: T1, human α-Syn fibrils (Homo sapiens, UniProt P37840); assay: Competition binding against 5 nM [3H]BF-227 on α-Syn fibrils; details: for Ki: 5 nM [3H]BF-227, Cheng-Prusoff, geometric mean (low; high errors of the geometric mean); for Ki(Aβ)/Ki(α-Syn): selectivity for α-Syn binding, ratio of Ki on Aβ fibrils to Ki on α-Syn fibrils
T1 construct: Human full-length α-Syn (NM_000345) was cloned; made in house; host or cells: Escherichia coli BL21 (D3)
Experimental: Human full-length α-Syn (NM_000345) was cloned into the ampicillin-resistant Escherichia coli expression vector PET7-7 and transformed into BL21 (D3) strains for expression. The recombinant α-Syn was expressed and purified to ≥95% purity as described previously.[6] The monomeric α-Syn was formulated in 10 mM Tris–HCl, pH 7.6, 50 mM NaCl at 5 mg/mL. For fibril formation, 500 µL of purified α-Syn monomer was subjected to continuous shaking at 1000 rpm in an Eppendorf Thermomixer at 37°C for 7 days. The monomer was removed from fibrils by high-speed centrifugation with a Beckman-Coulter tabletop Optima MAX-XP (Beckman-Coulter, Indianapolis, Indiana) ultra-centrifuge at 600 000g for 40 minutes, followed by 3 PBS/centrifugation wash steps. After each centrifugation step, the supernatant was removed and the concentration of α-Syn in the supernatant was calculated from absorbance at 280 nm. The pellet was resuspended in PBS, and the concentration of fibrils was estimated by subtracting the total amount of α-Syn in the supernatant from all the wash steps and confirmed by BCA assay before use.
(§1) Competition studies were carried out using 5 nM [^3H]BF-227. Experiments were performed in 50 mM Tris–HCl pH 7.5, 150 mM NaCl, and 0.1% bovine serum albumin in a reaction volume of 200 µL. Incubations were initiated with the addition of human α-Syn ([…]) or Aβ1-42 (0.1 μM/well) fibrils at room temperature and terminated 2 hours later by rapid vacuum filtration over Whatman GF/C 96-well Unifilters (Brandel [Gaithersburg, Maryland]) presoaked in cold wash buffer (50 mM Tris–HCl, pH7.4), followed by four 200 µL washes with cold wash buffer. Filters containing bound ligand were mixed with 50 µL Microscint-PS (Perkin-Elmer [Waltham, Massachusetts]) and counted with a MicroBeta2 Scintillation Counter (Perkin Elmer). All data points were performed in triplicate. Values for the saturation binding dissociation constant (KD) and the maximal number of binding sites (Bmax) were determined by fitting the data to the equation Y = Bmax × X/(X + KD) using nonlinear regression analysis. IC50 values were generated from the concentration–response curves using nonlinear regression analysis and converted to Ki values with the Cheng-Prusoff equation.[7] Data analysis was performed with GraphPad Prism version 7.02.
(§2) Results are expressed as inhibition constants (Ki, nM) corrected for ligand occupancy.[7] Each value is a geometric mean from the indicated numbers of experiments (n), with the numbers in parentheses indicating the low and high errors of the geometric mean. Also shown are the Log P, tPSA, and CLogP values for these compounds. These can be compared with means for the 5 Aβ imaging agents which can serve as an empirical training set to judge the likely in vivo behavior of new compounds.

Aβ1-42 fibrils = molecular target: T2, Aβ1-42 fibrils (Homo sapiens, UniProt P05067); assay: Competition binding against 5 nM [3H]BF-227 on Aβ1-42 fibrils; details: 5 nM [3H]BF-227, Cheng-Prusoff; geometric mean (low; high errors of the geometric mean); read-out: Aβ Ki
T2 construct: Aβ1-42 peptide 5 mg, Cat #20276-5 (Anaspec, Fremont, California); purchased Anaspec 20276-5
T2 sequence (P05067 672-713 limits assumed): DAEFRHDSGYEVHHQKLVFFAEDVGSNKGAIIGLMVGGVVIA
Experimental: The clear peptide solution was transferred to a 15 mL conical tube. […] Subsequently, 4 mL of Milli-Q-H2O was added to the conical tube followed by the addition of 125 µL of 1 M Tris–HCl, pH 7.5 with gentle mixing of the solution. The final volume was 5 mL, with the starting peptide concentration at 1 mg/mL. The peptide solution was divided into 5 × 1 mL aliquots with 1.5 mL Eppendorf tubes and incubated for 72 hours at 37°C with shaking at 1000 rpm in an Eppendorf Thermomixer. […] Fibril stock solutions were stored at −80°C.
as §1, with “Experiments” for “Competition studies were carried out using 5 nM [^3H]BF-227. Experiments”, “equation.[7]” for “equation.[7] Data analysis was performed with GraphPad Prism version 7.02.”
as §2, with “Also shown are the Log P, tPSA, and CLogP values for these compounds.” left out

synthetic Aβ fibrils [1] = molecular target: synthetic Aβ fibrils; design: method as in PMID 17401091; details: reported value; cited from earlier work
synthetic Aβ fibrils [2] = molecular target: synthetic Aβ fibrils; design: method as in PMID 19576880; details: reported value; cited from earlier work
synthetic α-Syn fibrils = molecular target: synthetic α-Syn fibrils; design: method as in PMID 19576880; details: reported value; cited from earlier work
Lewy body = system: Lewy body; design: method as in PMID 19576880; details: high concentration (100 μM); cited from earlier work
[3] = system: α-Syn-positive, Aβ-negative dementia with Lewy body human brain homgenates; design: method as in PMID 28826526; details: cited from earlier work

Structure (SMILES) | Ki (human α-Syn fibrils) | Ki (Aβ1-42 fibrils) | Ki(Aβ)/Ki(α-Syn) (human α-Syn fibrils) | also measured
CNc1ccc(-c2nc3ccccc3s2)cc1 [BTA-1, reference compound] | 0.064 µM |  |  | 
CN(C)c1ncc(/C=C/c2nc3ccc(OCCCF)cc3o2)s1 [Compound 2] | 0.157 µM | 0.00901 µM | 0.06 | 
CN(C)c1ncc(/C=C/c2nc3ccc(OCCCCF)cc3o2)s1 [Compound 3] | 0.378 µM | 0.031 µM | 0.08 | 
CN(C)c1ncc(/C=C/c2nc3ccc(OCCCCCF)cc3o2)s1 [Compound 4] | 0.297 µM | 0.028 µM | 0.09 | 
CN(C)c1ncc(/C=C/c2nc3ccc(OCCCCCCF)cc3o2)s1 [Compound 5] | 0.462 µM | 0.023 µM | 0.05 | 
CN(C)c1ncc(/C=C/c2nc3ccc(OCCCCCCCF)cc3o2)s1 [Compound 6] | 0.212 µM | 0.027 µM | 0.13 | 
CN(C)c1ncc(/C=C/c2nc3ccc(OCCOCCF)cc3o2)s1 [Compound 7] | 0.083 µM | 0.011 µM | 0.13 | 
CN(C)c1ncc(/C=C/c2nc3ccc(OCCOCCOCCF)cc3o2)s1 [Compound 8] | 0.052 µM | 0.013 µM | 0.25 | 
CN(C)c1ncc(/C=C/c2nc3ccc(OCCOCCOCCOCCF)cc3o2)s1 [Compound 9] | 0.1 µM | 0.026 µM | 0.26 | 
CN(C)c1ncc(/C=C/c2nc3ccc(OCCOCCOCCOCCOCCF)cc3o2)s1 [Compound 10] | 0.075 µM | 0.018 µM | 0.24 | 
NCCNC(=O)c1ccc(Cl)cc1 [RO-16-6491, reference compound] | > 9 µM | > 7 µM |  | 
CN(C)c1ncc(C=Cc2nc3ccc(OCCF)cc3o2)s1 [[^18F]BF-227] |  |  |  | Binding to α-Syn-positive, Aβ-negative dementia with Lewy body human brain homogenates [3]: failed to bind

Second part, led by results:

Ki (human α-Syn fibrils) | Ki (Aβ1-42 fibrils) | Ki(Aβ)/Ki(α-Syn) (human α-Syn fibrils) | Structure (SMILES) | also measured
0.184 µM | 0.076 µM |  | COc1cc(/C=C/c2ccc(N)cc2)ccc1/C=C/c1ccc(N)cc1 [BMB, 1,4-bis(paminostyryl)-2-methoxy benzene, reference compound] | 
> 9 µM | > 5 µM |  | C#CCN(C)CCCOc1ccc(Cl)cc1Cl [Clorgyline, reference compound] | 
0.053 µM | 0.012 µM | 0.23 | CN(C)c1ncc(C=Cc2nc3ccc(OCCF)cc3o2)s1 [Compound 1, 2-(2-[2-dimethylaminothiazol-5-yl]ethenyl)-6-(2-[fluoro]ethoxy)benzoxazole] | Kd (synthetic Aβ fibrils [1]): 0.0041 µM; Kd (synthetic Aβ fibrils [2]): 0.00131 µM; Kd (synthetic α-Syn fibrils): 0.0093 µM; Lewy body fluorescence in histochemical analysis (Lewy body): led to Lewy body fluorescence
 | 0.223 µM | 0.30 | CN(C)c1ncc(/C=C/c2nc3ccc(I)cc3o2)s1 [Compound 11] | 
0.276 µM | 0.096 µM | 0.35 | CN(C)c1ncc(/C=C/c2nc3cc(I)ccc3o2)s1 [Compound 12] | 
0.328 µM | 1.25 µM | 3.8 | Fc1ccc2nc(/C=C/c3ccccc3)oc2c1 [Compound 13] | 
0.238 µM | 0.528 µM | 2.2 | Fc1ccc2oc(/C=C/c3ccccc3)nc2c1 [Compound 14] | 
0.286 µM | 1.45 µM | 5.1 | Fc1ccc2nc(/C=C/c3cncs3)oc2c1 [Compound 15] | 
0.024 µM | 0.012 µM | 0.46 | CNc1ccc(/C=C/c2ccc(OCCOCCOCCF)nc2)cc1 [Florbetapir (AV-45), reference compound] | 
0.032 µM | 0.042 µM | 1.34 | CNc1ccc(-c2cc3cc(O)ccc3o2)c(F)n1 [Flutafuranol (NAV 4694), reference compound] | 
0.048 µM | 0.065 µM | 1.35 | CNc1ccc(-c2nc3ccc(O)cc3s2)cc1F [Flutemetamol, reference compound] | 
0.055 µM |  |  | CNc1ccc(-c2nc3ccc(O)cc3s2)cc1 [PiB, reference compound] | 
> 9 µM | 2.15 µM | ≤0.2 | Cc1ccc2c(sc(-c3ccc4c(c3)sc(-c3ccc(N(C)C)cc3)[n+]4C)[n+]2C)c1S(=O)(=O)O [reference compound] | 
